Assay results: ChEMBL document CHEMBL1147792, “Functional organisation and gain of activity: the case of the antibacterial tetra-para-guanidinoethyl-calix[4]arene” (Bioorg Med Chem Lett, 2006)
Where “and” joins values, the source holds several entries; their conditions need not be identical. Identical values can stand only once. Calls of active or inactive are those of the source. No cut-off for these calls is given here.

Assays:
[1] = test system: MRC5; experiment: Ratio of IC50 for viability of MRC5 cells after 48 hrs to MIC for Escherichia coli ATCC 25922; assay type: functional
[2] = test system: Escherichia coli; experiment: Antibacterial activity against Escherichia coli ATCC 25922 at 65 ug by disk diffusion method; assay type: functional, organism-based
[3] = test system: MRC5; experiment: Viability of human MRC5 cells after 48 hrs; assay type: functional, cell-based; settings: MRC5, 48 h
[4] = test system: MRC5; experiment: Ratio of IC50 for viability of MRC5 cells after 48 to MIC for Enterococcus faecalis ATCC 29212; assay type: functional
[5] = test system: Enterococcus faecalis; experiment: Antibacterial activity against Enterococcus faecalis ATCC 29212; assay type: functional
[6] = test system: Enterococcus faecalis; experiment: Antibacterial activity against Enterococcus faecalis ATCC 29212 at 32 ug by disk diffusion method; assay type: functional, organism-based
[7] = test system: Enterococcus faecalis; experiment: Antibacterial activity against Enterococcus faecalis ATCC 29212 at 256 ug by disk diffusion method; assay type: functional, organism-based
[8] = test system: Pseudomonas aeruginosa; experiment: Antibacterial activity against Pseudomonas aeruginosa ATCC 27853 at 65 ug by disk diffusion method; assay type: functional, organism-based
[9] = test system: MRC5; experiment: Ratio of IC50 for viability of MRC5 cells after 48 to MIC for Staphylococcus aureus ATCC 25923; assay type: functional
[10] = test system: MRC5; experiment: Ratio of IC50 for viability of MRC5 cells after 48 to MIC for Pseudomonas aeruginosa ATCC 27853; assay type: functional
[11] = test system: Pseudomonas aeruginosa; experiment: Antibacterial activity against Pseudomonas aeruginosa ATCC 27853; assay type: functional
[12] = test system: Pseudomonas aeruginosa; experiment: Antibacterial activity against Pseudomonas aeruginosa ATCC 27853 at 32 ug by disk diffusion method; assay type: functional, organism-based
[13] = test system: Staphylococcus aureus; experiment: Antibacterial activity against Staphylococcus aureus ATCC 25923 at 32 ug by disk diffusion method; assay type: functional, organism-based
[14] = test system: Pseudomonas aeruginosa; experiment: Antibacterial activity against Pseudomonas aeruginosa ATCC 27853 at 128 ug by disk diffusion method; assay type: functional, organism-based
[15] = test system: Staphylococcus aureus; experiment: Antibacterial activity against Staphylococcus aureus ATCC 25923 at 65 ug by disk diffusion method; assay type: functional, organism-based
[16] = test system: Escherichia coli; experiment: Antibacterial activity against Escherichia coli ATCC 25922; assay type: functional
[17] = test system: Escherichia coli; experiment: Antibacterial activity against Escherichia coli ATCC 25922 at 128 ug by disk diffusion method; assay type: functional, organism-based
[18] = test system: Staphylococcus aureus; experiment: Antibacterial activity against Staphylococcus aureus ATCC 25923; assay type: functional
[19] = test system: Staphylococcus aureus; experiment: Antibacterial activity against Staphylococcus aureus ATCC 25923 at 128 ug by disk diffusion method; assay type: functional, organism-based
[20] = test system: Pseudomonas aeruginosa; experiment: Antibacterial activity against Pseudomonas aeruginosa ATCC 27853 at 256 ug by disk diffusion method; assay type: functional, organism-based
[21] = test system: Escherichia coli; experiment: Antibacterial activity against Escherichia coli ATCC 25922 at 256 ug by disk diffusion method; assay type: functional
[22] = test system: Enterococcus faecalis; experiment: Antibacterial activity against Enterococcus faecalis ATCC 29212 at 65 ug by disk diffusion method; assay type: functional, organism-based
[23] = test system: Staphylococcus aureus; experiment: Antibacterial activity against Staphylococcus aureus ATCC 25923 at 256 ug by disk diffusion method; assay type: functional
[24] = test system: Escherichia coli; experiment: Antibacterial activity against Escherichia coli ATCC 25922 at 32 ug by disk diffusion method; assay type: functional, organism-based
[25] = test system: Enterococcus faecalis; experiment: Antibacterial activity against Enterococcus faecalis ATCC 29212 at 128 ug by disk diffusion method; assay type: functional, organism-based
[26] = test system: Staphylococcus aureus; experiment: Antibacterial activity against Staphylococcus aureus ATCC 25923 at 34 ug by disk diffusion method; assay type: functional
[27] = test system: Escherichia coli; experiment: Antibacterial activity against Escherichia coli ATCC 25922 against at 135 ug by disk diffusion method; assay type: functional
[28] = test system: Pseudomonas aeruginosa; experiment: Antibacterial activity against Pseudomonas aeruginosa ATCC 27853 at 67 ug by disk diffusion method; assay type: functional, organism-based
[29] = test system: Staphylococcus aureus; experiment: Antibacterial activity against Staphylococcus aureus ATCC 25923 at 270 ug by disk diffusion method; assay type: functional
[30] = test system: Pseudomonas aeruginosa; experiment: Antibacterial activity against Pseudomonas aeruginosa ATCC 27853 at 34 ug by disk diffusion method; assay type: functional, organism-based
[31] = test system: Enterococcus faecalis; experiment: Antibacterial activity against Enterococcus faecalis ATCC 29212 at 34 ug by disk diffusion method; assay type: functional, organism-based
[32] = test system: Staphylococcus aureus; experiment: Antibacterial activity against Staphylococcus aureus ATCC 25923 at 135 ug by disk diffusion method; assay type: functional
[33] = test system: Staphylococcus aureus; experiment: Antibacterial activity against Staphylococcus aureus ATCC 25923 at 67 ug by disk diffusion method; assay type: functional
[34] = test system: Escherichia coli; experiment: Antibacterial activity against Escherichia coli ATCC 25922 at 34 ug by disk diffusion method; assay type: functional, organism-based
[35] = test system: Enterococcus faecalis; experiment: Antibacterial activity against Enterococcus faecalis ATCC 29212 at 270 ug by disk diffusion method; assay type: functional
[36] = test system: Escherichia coli; experiment: Antibacterial activity against Escherichia coli ATCC 25922 at 270 ug by disk diffusion method; assay type: functional
[37] = test system: Pseudomonas aeruginosa; experiment: Antibacterial activity against Pseudomonas aeruginosa ATCC 27853 at 270 ug by disk diffusion method; assay type: functional
[38] = test system: Enterococcus faecalis; experiment: Antibacterial activity against Enterococcus faecalis ATCC 29212 at 67 ug by disk diffusion method; assay type: functional
[39] = test system: Enterococcus faecalis; experiment: Antibacterial activity against Enterococcus faecalis ATCC 29212 at 135 ug by disk diffusion method; assay type: functional
[40] = test system: Pseudomonas aeruginosa; experiment: Antibacterial activity against Pseudomonas aeruginosa ATCC 27853 at 135 ug by disk diffusion method; assay type: functional, organism-based
[41] = test system: Escherichia coli; experiment: Antibacterial activity against Escherichia coli ATCC 25922 at 67 ug by disk diffusion method; assay type: functional

For `N=C(N)NCCc1ccc(O)cc1.O=C(O)C(F)(F)F`, which Selectivity index [1] is on record?
Its Selectivity index is 0.48.

And the “inhibition zone (IZ)” value [2]?
The value was “inactive”.

What about the IC50 [3] of the same compound?
The IC50 was 850 µM.

What about the Selectivity index [4] of the same compound?
The Selectivity index was “<=0.48”.

And the MIC [5]?
The MIC was ≥ 512 µg/mL and 1750 µM.

What about the “inhibition zone (IZ)” value [6] of the same compound?
The value was “inactive”.

And the “inhibition zone (IZ)” value [7]?
Its value is “inactive”.

What about the “inhibition zone (IZ)” value [8] of the same compound?
The value was “inactive”.

And the Selectivity index [9]?
Its Selectivity index is 0.48.

What about the Selectivity index [10] of the same compound?
Its Selectivity index is 0.48.

And the MIC [11]?
The MIC was 512 µg/mL and 1750 µM.

What about the “inhibition zone (IZ)” value [12] of the same compound?
Its value is “inactive”.

What about the “inhibition zone (IZ)” value [13] of the same compound?
Its value is “inactive”.

And the “inhibition zone (IZ)” value [14]?
The value was “inactive”.

And the “inhibition zone (IZ)” value [15]?
The value was “inactive”.

What about the MIC [16] of the same compound?
The MIC was 512 µg/mL and 1750 µM.

And the “inhibition zone (IZ)” value [17]?
The value was “inactive”.

What about the MIC [18] of the same compound?
The MIC was 512 µg/mL and 1750 µM.

And the “inhibition zone (IZ)” value [19]?
Its value is “inactive”.

What about the “inhibition zone (IZ)” value [20] of the same compound?
Its value is “inactive”.

What about the inhibition zone (IZ) [21] of the same compound?
The inhibition zone (IZ) was 7.6 mm.

And the “inhibition zone (IZ)” value [22]?
The value was “inactive”.

What about the inhibition zone (IZ) [23] of the same compound?
The inhibition zone (IZ) was 7.8 mm.

And the “inhibition zone (IZ)” value [24]?
The value was “inactive”.

And the “inhibition zone (IZ)” value [25]?
Its value is “inactive”.

How did the Selectivity index [1] turn out when `N=C(N)NCCc1cc2c(O)c(c1)Cc1cc(CCNC(=N)N)cc(c1O)Cc1cc(CCNC(=N)N)cc(c1O)Cc1cc(CCNC(=N)N)cc(c1O)C2.O=C(O)C(F)(F)F.O=C(O)C(F)(F)F.O=C(O)C(F)(F)F.O=C(O)C(F)(F)F` was run?
The Selectivity index was 43.

What about the IC50 [3] of the same compound?
The IC50 was 560 µM.

And the Selectivity index [4]?
The Selectivity index was 11.

What about the inhibition zone (IZ) [26] of the same compound?
The inhibition zone (IZ) was 6.3 mm.

And the inhibition zone (IZ) [27]?
Its inhibition zone (IZ) is 9.3 mm.

And the MIC [5]?
The MIC was 64 µg/mL and 51 µM.

And the “inhibition zone (IZ)” value [28]?
The value was “inactive”.

And the inhibition zone (IZ) [29]?
Its inhibition zone (IZ) is 11 mm.

What about the “inhibition zone (IZ)” value [30] of the same compound?
The value was “inactive”.

What about the Selectivity index [9] of the same compound?
The Selectivity index was 43.

And the Selectivity index [10]?
Its Selectivity index is 43.

And the “inhibition zone (IZ)” value [31]?
The value was “inactive”.

And the MIC [11]?
The MIC was 16 µg/mL and 13 µM.

And the inhibition zone (IZ) [32]?
The inhibition zone (IZ) was 9 mm.

And the MIC [16]?
The MIC was 16 µg/mL and 13 µM.

And the inhibition zone (IZ) [33]?
Its inhibition zone (IZ) is 8 mm.

And the “inhibition zone (IZ)” value [34]?
The value was “inactive”.

What about the inhibition zone (IZ) [35] of the same compound?
The inhibition zone (IZ) was 10 mm.

What about the inhibition zone (IZ) [36] of the same compound?
Its inhibition zone (IZ) is 11.2 mm.

What about the MIC [18] of the same compound?
Its MIC is 16 µg/mL and 13 µM.

What about the inhibition zone (IZ) [37] of the same compound?
The inhibition zone (IZ) was 7.8 mm.

What about the inhibition zone (IZ) [38] of the same compound?
The inhibition zone (IZ) was 6.6 mm.

And the inhibition zone (IZ) [39]?
Its inhibition zone (IZ) is 8.3 mm.

What about the “inhibition zone (IZ)” value [40] of the same compound?
The value was “inactive”.

What about the inhibition zone (IZ) [41] of the same compound?
Its inhibition zone (IZ) is 7.3 mm.
